Measurements: ChEMBL document CHEMBL1150174, “Lyngbyaloside B, a new glycoside macrolide from a Palauan marine cyanobacterium, Lyngbya sp” (J Nat Prod, 2002)

How the values were obtained:
[1] = tested on: LoVo; experiment: Cytotoxicity against human LoVo cells; type: functional, cell-based
[2] = tested on: KB; experiment: Cytotoxicity against human KB cells; type: functional, cell-based

CO[C@@H]1[C@@H](OC)[C@@H](O)[C@H](O[C@H]2C[C@@]3(O)CC(=O)O[C@](C)(CC/C=C/C=C/Br)C[C@@H](O)[C@H](C)CC[C@H](O3)[C@@H]2C)O[C@H]1C [LYNGBYALOSIDE B] was tested, and the IC50 [1] was 15 µM and the IC50 [2] was 4.3 µM.
